Data taken from patent publication US10047113B2, “Feruloyl-CoA:monolignol transferase” (Wisconsin Alumni Research Foundation (WARF), priority 2010, dated 2018).

Legend:
[1] = tested on: feruloyl-CoA:monolignol transferase (FMT); test: Feruloyl-CoA:monolignol transferase (FMT) enzymatic assay, UPLC detection of product; assay type: biochemical, Angelica sinensis; conditions: purified recombinant enzyme; for product formation from acyl-CoA substrate: coniferyl alcohol as acceptor, FIGS. 2, 6, 7; for FMT enzyme activity with monolignol as substrate: feruloyl-CoA as acyl donor, FIGS. 2, 4, 5
Description: The feruloyl-CoA, p-coumaroyl-CoA, and caffeoyl-CoA substrates used in the FMT assay were enzymatically synthesized using the tobacco 4-coumarate-CoA-ligase (4CL) with a c-terminal HIS tag in pCRT7/CT TOPO, provided by Eran Pichersky. Following a method modified from Beuerle and Pichersky (Anal. Biochem. 302(2): 305-12 (2001)) 3.3 mg of ferulic acid, coumaric acid or caffeic acid, 2 mg coenzyme A, and 6.9 mg ATP were added to 50 mM Tris-hydrochloride pH 8 and 2.5 mM magnesium chloride in a final volume of 10 ml. The reaction was started by adding 0.25 mg 4CL, protein purified as described by the method of Beurerle and Pichershy. After a five-hour incubation at room temperature, additional 6.9 mg ATP, 2 mg coenzyme A, and 0.25 mg purified 4CL were added and the reaction was incubated overnight. The CoA esters were purified on an SPE cartridge as described in Beuerle and Pichersky (2001).
(§1) The FMT activity assay contained 100 mM MOPS pH 6.8, 1 mM dithiothreitol (DTT), 1 mM feruloyl-CoA, 1 mM coniferyl alcohol, 3.9 μg of purified FMT protein and deionized water to a volume of 50 μL. After a 30-minute incubation, 1 μL of 10 M hydrochloric acid was added to stop the reaction. Because the product synthesized in the reaction, coniferyl ferulate (CAFA), is insoluble, 50 μL of methanol was added to solubilize the CAFA. Prior to UPLC, protein and insoluble material were removed by filtering through an Amicon Ultracel 10K membrane filter (Millipore). The flow-through was analyzed using an Acquity Ultra Performance LC with an Acquity UPLC BEH C18 1.7 μm 2.1×100 mm column and the Acquity Console and Empower 2 Software, all from Waters Corporation. The solvents used in this method were solvent A, 0.1% trifluoroacetic acid, and solvent B, 100% acetonitrile. Samples were analyzed using the following gradient conditions, 13% B, for 5 minutes, 1 minute linear gradient to 42% B, held for 4 minutes, 1 minute linear gradient to 100% B, held for 1 minutes and 3 minutes at 13% B with a flow rate of 0.3 ml/minute. This method was then used to analyze a 10 μL injection of each assay reaction; standards for each of the substrates along with chemically synthesized CAFA were used to determine retention times for each compound.
Purified recombinant enzyme was assayed for FMT activity using a reaction mixture containing 2 mM coniferyl alcohol, […], 100 mM HEPES pH 7.4 and 1 mM DTT. The second most abundant BAHD acyltransferase gene when incubated with Coniferyl alcohol and feruloyl-CoA produced a compound with the retention time of authentic coniferyl ferulate (CAFA) (FIG. 2). […] The addition of methanol to 50% after stopping the enzyme with acid was required to analyze the product by UPLC. The insolubility of the product made partial purification easy as the product was separated from the substrates by centrifugation.
This partial purified product was analyzed by NMR. The identity of the product as CAFA was confirmed by ^1H-NMR (FIG. 3). The enzyme was tested with p-coumaryl alcohol (FIG. 4) and sinapyl alcohol (FIG. 5) in addition to coniferyl alcohol (FIG. 2). The enzyme is active with all three monolignols, i.e., p-coumaryl alcohol, coniferyl alcohol and sinapyl alcohol. The enzyme was tested with p-coumaroyl-CoA (FIG. 6) and caffeoyl-CoA (FIG. 7) as well as feruloyl-CoA (FIG. 2).

[2] = Solubility of the FMT reaction product; assay type: physicochemical
Description: as §1, with “compound. […]” for “compound.”

Row | product formation from acyl-CoA substrate [1] | FMT enzyme activity with monolignol as substrate [1] | Compound | also measured
1 | very little product is produced | – | CC(C)(COP(=O)(O)OP(=O)(O)OC[C@H]1O[C@@H](n2cnc3c(N)ncnc32)[C@H](O)[C@@H]1OP(=O)(O)O)[C@@H](O)C(=O)NCCC(=O)NCCSC(=O)/C=C/c1ccc(O)c(O)c1 [caffeoyl-CoA] | –
2 | – | active | COc1cc(/C=C/CO)ccc1O [coniferyl alcohol] | –
3 | – | – | COc1cc(/C=C/COC(=O)/C=C/c2ccc(O)c(OC)c2)ccc1O [coniferyl ferulate] | solubility in assay reaction mixture ([2]; FMT activity assay, 100 mM MOPS pH 6.8, methanol added to solubilize): insoluble; solubility in water ([2]; product of enzyme reaction, methanol to 50% needed for UPLC): mostly insoluble in water
4 | substantial product is formed | – | COc1cc(/C=C/C(=O)SCCNC(=O)CCNC(=O)[C@H](O)C(C)(C)COP(=O)(O)OP(=O)(O)OC[C@H]2O[C@@H](n3cnc4c(N)ncnc43)[C@H](O)[C@@H]2OP(=O)(O)O)ccc1O [feruloyl-CoA] | –
5 | very little product is produced | – | CC(C)(COP(=O)(O)OP(=O)(O)OC[C@H]1O[C@@H](n2cnc3c(N)ncnc32)[C@H](O)[C@@H]1OP(=O)(O)O)[C@@H](O)C(=O)NCCC(=O)NCCSC(=O)/C=C/c1ccc(O)cc1 [p-coumaroyl-CoA] | –
6 | – | active | OC/C=C/c1ccc(O)cc1 [p-coumaryl alcohol] | –
7 | – | active | COc1cc(/C=C/CO)cc(OC)c1O [sinapyl alcohol] | –
